Laboratory results: patent US11541055B2, “Inhibitors of human immunodeficiency virus replication” (ViiV Healthcare UK (No. 5) LIMITED, priority 2018, dated 2023)

Legend:
[1] = system: recombinant NL4-3 virus (Renilla luciferase) in MT-2 cells; test: HIV cell culture assay (antiviral activity, luciferase readout); assay type: cell-based; details: Renilla, NL43
Procedure, shortened: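 MT-2 cells were infected with recombinant NL4-3 virus carrying Renilla luciferase in place of part of nef. Cells were cultured 4–5 days with serially diluted compound, and luciferase was measured with a live-cell substrate. EC50 was calculated from the median effect equation.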

[2] = Compound cytotoxicity, XTT-based colorimetric assay; assay type: cell-based; details: human; uninfected MT2 cells, day 4, XTT
Procedure, shortened: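 Run under the antiviral-assay protocol but without virus. Viability was read on day 4 and CC50 values were derived from the readout.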

Structure (SMILES) | EC50 [1] [nM] | CC50 at 4 days [2] [nM]
COc1cnc(-c2ccc3c(=O)n(-c4ccc(Cl)c5c(NS(C)(=O)=O)nn(CC(F)(F)F)c45)c([C@H](Cc4cc(F)cc(F)c4)NC(=O)Cn4nc(C(F)F)c5c4C(F)(F)[C@@H]4C[C@H]54)nc3c2)nc1 (atropisomer, axis not shown) [Example 115, N-[(1S)-1-{3-[4-chloro-3-methanesulfonamido-1-(2,2,2-trifluoroethyl)-1H-indazol-7-yl]-7-(5-methoxypyrimidin-2-yl)-4-oxo-3,4-dihydroquinazolin-2-yl}-2-(3,5-difluorophenyl)ethyl]-2-[(2S,4R)-9-(difluoromethyl)-5,5-difluoro-7,8-diazatricyclo[4.3.0.0^2,^4]nona-1(6),8-dien-7-yl]acetamide] | 0.098 | > 500
CN(c1ccccc1-c1ccc2c(=O)n(-c3ccc(Cl)c4c(NS(C)(=O)=O)nn(C)c34)c([C@H](Cc3cc(F)cc(F)c3)NC(=O)Cn3nc(C(F)F)c4c3C(F)(F)[C@@H]3C[C@H]43)nc2c1)S(C)(=O)=O (atropisomer, axis not shown; (P)) [Example 27, N—((S)-1-((3P)-3-(4-chloro-1-methyl-3-(methylsulfonamido)-1H-indazol-7-yl)-7-(2-(N-methylmethylsulfonamido)phenyl)-4-oxo-3,4-dihydroquinazolin-2-yl)-2-(3,5-difluorophenyl)ethyl)-2-((3bS,4aR)-3-(difluoromethyl)-5,5-difluoro-3b,4,4a,5-tetrahydro-1H-cyclopropa[3,4]cyclopenta[1,2-c]pyrazol-1-yl)acetamide] | 0.49 | > 500
COc1ccc(-c2ccc3c(=O)n(-c4ccc(Cl)c5c(NS(=O)(=O)C6CC6)nn(CC(F)F)c45)c([C@H](Cc4cc(F)cc(F)c4)NC(=O)Cn4nc(C(F)F)c5c4C(F)(F)[C@@H]4C[C@H]54)nc3c2)nn1 (atropisomer, axis not shown; (P)) [Example 90, N—((S)-1-((3P)-3-(4-chloro-3-(cyclopropanesulfonamido)-1-(2,2-difluoroethyl)-1H-indazol-7-yl)-7-(6-methoxypyridazin-3-yl)-4-oxo-3,4-dihydroquinazolin-2-yl)-2-(3,5-difluorophenyl)ethyl)-2-((3bS,4aR)-3-(difluoromethyl)-5,5-difluoro-3b,4,4a,5-tetrahydro-1H-cyclopropa[3,4]cyclopenta[1,2-c]pyrazol-1-yl)acetamide] | 0.085 | > 500
Cc1ccc(F)c(-c2ccc3c(=O)n(-c4ccc(Cl)c5c(NS(C)(=O)=O)nn(CC(F)F)c45)c([C@H](Cc4cc(F)cc(F)c4)NC(=O)Cn4nc(C(F)F)c5c4C(F)(F)[C@@H]4C[C@H]54)nc3c2)n1 (atropisomer, axis not shown) [Example 122] | 0.08 | > 500
COCc1nccc(-c2ccc3c(=O)n(-c4ccc(Cl)c5c(NS(C)(=O)=O)nn(C)c45)c([C@H](Cc4cc(F)cc(F)c4)NC(=O)Cn4nc(C(F)F)c5c4C(F)(F)[C@@H]4C[C@H]54)nc3c2)n1 (atropisomer, axis not shown; (P)) [Example 74, N—((S)-1-((3P)-3-(4-chloro-1-methyl-3-(methylsulfonamido)-1H-indazol-7-yl)-7-(2-(methoxymethyl)pyrimidin-4-yl)-4-oxo-3,4-dihydroquinazolin-2-yl)-2-(3,5-difluorophenyl)ethyl)-2-((3bS,4aR)-3-(difluoromethyl)-5,5-difluoro-3b,4,4a,5-tetrahydro-1H-cyclopropa[3,4]cyclopenta[1,2-c]pyrazol-1-yl)acetamide] | 0.079 | > 500
Cn1nc(NS(C)(=O)=O)c2c(Cl)ccc(-n3c([C@H](Cc4cc(F)cc(F)c4)NC(=O)Cn4nc(C(F)F)c5c4C(F)(F)[C@@H]4C[C@H]54)nc4cc(-c5ccnc(C6CCCC6)n5)ccc4c3=O)c21 (atropisomer, axis not shown; (P)) [Example 73, N—((S)-1-((3P)-3-(4-chloro-1-methyl-3-(methylsulfonamido)-1H-indazol-7-yl)-7-(2-cyclopentylpyrimidin-4-yl)-4-oxo-3,4-dihydroquinazolin-2-yl)-2-(3,5-difluorophenyl)ethyl)-2-((3bS,4aR)-3-(difluoromethyl)-5,5-difluoro-3b,4,4a,5-tetrahydro-1H-cyclopropa[3,4]cyclopenta[1,2-c]pyrazol-1-yl)acetamide] | 0.96 | > 500
Cc1cc(-c2ccc3c(=O)n(-c4ccc(Cl)c5c(NS(C)(=O)=O)nn(CC(F)(F)F)c45)c([C@H](Cc4cc(F)cc(F)c4)NC(=O)Cn4nc(C(F)F)c5c4C(F)(F)[C@@H]4C[C@H]54)nc3c2)nc(C)n1 (atropisomer, axis not shown) [Example 103, N-[(1S)-1-{3-[4-chloro-3-methanesulfonamido-1-(2,2,2-trifluoroethyl)-1H-indazol-7-yl]-7-(2,6-dimethylpyrimidin-4-yl)-4-oxo-3,4-dihydroquinazolin-2-yl}-2-(3,5-difluorophenyl)ethyl]-2-[(2S,4R)-9-(difluoromethyl)-5,5-difluoro-7,8-diazatricyclo[4.3.0.0^2,^4]nona-1(6),8-dien-7-yl]acetamide] | 0.059 | > 500
CS(=O)(=O)Nc1nn(CC(F)(F)F)c2c(-n3c([C@H](Cc4cc(F)cc(F)c4)NC(=O)Cn4nc(C(F)F)c5c4C(F)(F)[C@@H]4C[C@H]54)nc4cc(-c5nccc(C(F)(F)F)n5)ccc4c3=O)ccc(Cl)c12 (atropisomer, axis not shown) [Example 102] | 0.13 | > 500
CCc1cc(C)nc(-c2ccc3c(=O)n(-c4ccc(Cl)c5c(NS(=O)(=O)C6CC6)nn(CC(F)F)c45)c([C@H](Cc4cc(F)cc(F)c4)NC(=O)Cn4nc(C(F)F)c5c4C(F)(F)[C@@H]4C[C@H]54)nc3c2)n1 (atropisomer, axis not shown; (P)) [Example 82, N—((S)-1-((3P)-3-(4-chloro-3-(cyclopropanesulfonamido)-1-(2,2-difluoroethyl)-1H-indazol-7-yl)-7-(4-ethyl-6-methylpyrimidin-2-yl)-4-oxo-3,4-dihydroquinazolin-2-yl)-2-(3,5-difluorophenyl)ethyl)-2-((3bS,4aR)-3-(difluoromethyl)-5,5-difluoro-3b,4,4a,5-tetrahydro-1H-cyclopropa[3,4]cyclopenta[1,2-c]pyrazol-1-yl)acetamide] | 0.25 | > 500
COc1ncc(-c2ccc3c(=O)n(-c4ccc(Cl)c5c(NS(C)(=O)=O)nn(CC(F)F)c45)c([C@H](Cc4cc(F)cc(F)c4)NC(=O)Cn4nc(C(F)F)c5c4C(F)(F)[C@@H]4C[C@H]54)nc3c2)cn1 (atropisomer, axis not shown) [Example 125, N-[(1S)-1-{3-[4-chloro-1-(2,2-difluoroethyl)-3-methanesulfonamido-1H-indazol-7-yl]-7-(2-methoxypyrimidin-5-yl)-4-oxo-3,4-dihydroquinazolin-2-yl}-2-(3,5-difluorophenyl)ethyl]-2-[(2S,4R)-9-(difluoromethyl)-5,5-difluoro-7,8-diazatricyclo[4.3.0.0^2,^4]nona-1(6),8-dien-7-yl]acetamide] | 0.06 | > 500
